Measurements: US10308667B2, “Oxadiazolopyridine derivatives for use as ghrelin O-acyl transferase (GOAT) inhibitors” (Boehringer Ingelheim International GmbH, priority 2016, dated 2019)

target: human GOAT (Homo sapiens (Human), UniProt Q96T53); assay: Determination of hGOAT Activity in HEK293 Cells after Incubation with Test Compound; format: cell-based; conditions: HEK293 cells stably transfected with preproghrelin and human GOAT; octanoate-BSA 100 μM; acyl-ghrelin in medium by ELISA after 5 hours
Sequence (Q96T53 whole entry): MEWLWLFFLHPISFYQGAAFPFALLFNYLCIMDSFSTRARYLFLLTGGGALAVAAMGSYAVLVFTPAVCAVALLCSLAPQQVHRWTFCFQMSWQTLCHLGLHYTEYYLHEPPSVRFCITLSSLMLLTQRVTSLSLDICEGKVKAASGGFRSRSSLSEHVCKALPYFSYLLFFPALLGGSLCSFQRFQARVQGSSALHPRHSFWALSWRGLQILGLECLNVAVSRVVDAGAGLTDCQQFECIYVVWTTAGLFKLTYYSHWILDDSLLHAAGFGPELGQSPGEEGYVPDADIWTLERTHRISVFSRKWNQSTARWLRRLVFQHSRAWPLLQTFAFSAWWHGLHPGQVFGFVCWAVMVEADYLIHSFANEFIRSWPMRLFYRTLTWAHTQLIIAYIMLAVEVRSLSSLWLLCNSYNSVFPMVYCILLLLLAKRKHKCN
Summary of the method: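 HEK293 cells stably expressing preproghrelin and human GOAT were given serum-free medium with 100 μM octanoate-BSA plus compound (0.3% DMSO) for 5 h. Acyl-ghrelin in the medium was quantified by ELISA (A405, standard curve) as % of vehicle. IC50 was fitted from 8 concentrations.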

Structure (SMILES) | IC50 [nM]
Cc1cccc(Cc2c(C)nc3nonc3c2N)n1 [Example 53, 5-Methyl-6-(6-methyl-pyridin-2-ylmethyl)-[1,2,5]oxadiazolo[3,4-b]pyridin-7-ylamine] | 2.6
Cc1nc2nonc2c(N)c1Cc1ccc(C#N)c(OC2COC2)n1 [Example 104, 6-(7-Amino-5-methyl-[1,2,5]oxadiazolo[3,4-b]pyridin-6-ylmethyl)-2-(oxetan-3-yloxy)-nicotinonitrile] | 0.98
Cc1nc2nonc2c(N)c1Cc1cccc(-c2c[nH]nc2C(F)(F)F)n1 [Example 62, 5-Methyl-6-[6-(3-trifluoromethyl-1H-pyrazol-4-yl)-pyridin-2-ylmethyl]-[1,2,5]oxadiazolo[3,4-b]pyridin-7-ylamine] | 0.21
Cc1nc2nonc2c(N)c1Cc1ncc(C#N)c(C(F)(F)F)n1 [Example 78, 2-(7-amino-5-methyl-[1,2,5]oxadiazolo[3,4-b]pyridin-6-ylmethyl)-4-(trifluoromethyl)pyrimidine-5-carbonitril] | 0.36
Cc1nc2nonc2c(N)c1Cc1ncc(Br)c(C(F)F)n1 [Example 84, 6-[5-bromo-4-(difluoromethyl)pyrimidin-2-yl]methyl-5-methyl-[1,2,5]oxadiazolo[3,4-b]pyridin-7-amine] | 0.21

More lines, now with the values ahead:

IC50 [nM] | Structure (SMILES)
3.5 | Cc1nc2nonc2c(N)c1Cc1ccc(-n2ccc(C(F)(F)F)n2)c(C#N)n1 [Example 156, 6-(7-Amino-5-methyl-[1,2,5]oxadiazolo[3,4-b]pyridin-6-ylmethyl)-3-(3-trifluoromethyl-pyrazol-1-yl)-pyridine-2-carbonitrile]
0.045 | Cc1nc2nonc2c(N)c1Cc1ccc(Br)c(NCC2(C)COC2)n1 [Example 121, 6-{5-Bromo-6-[(3-methyl-oxetan-3-ylmethyl)-amino]-pyridin-2-ylmethyl}-5-methyl-[1,2,5]oxadiazolo[3,4-b]pyridin-7-ylamine]
